Here are results for one molecule from patent US8252832B2, “Kinesin inhibitors as cancer therapeutics” (Novartis AG, priority 2007, dated 2012).

Like-named read-outs stand apart in the source and are kept apart here.

Experiment [1] concerns NCI60 panel of cell lines. Kind of experiment: CellTiter-Glo, NCI60 panel, mean of panel. In kind it is cell-based. From the text: Identification of tumor types that are the most sensitive to the KSP inhibitors of the present invention can be accomplished using an unbiased approach that uses several cell-based assays. The assays chosen were as follows: • CellTiter-Glo®. This is an assay designed to measure ATP concentration in a cell culture, and can be correlated to cell number. Briefly CellTiter-Glo® (Promega Corporation) is a homogeneous method using the single CellTiter-Glo® reagent to detect ATP wherein ATP in the assay drives the activity of a thermostable luciferase to create a luminescent signal which can then be measured and correlated with the number of viable cells. Briefly, for adherent cells, 1,000 to 5,000 cells/well were plated in 96-well plates (100 μl/well) and let to adhere for 24 hours before being treated with drug. For non-adherent cells, 1,000 to 10,000 cells/well were plated in 96-well plates (100 μl/well) and immediately treated with drug. Drug dilutions were prepared in DMSO at 1000 times the final concentration. These dilutions were then diluted 1/100 in growth media before being added to the cells (11 μl/well) to achieve the desired final concentration. […] The enzymatic reaction is coupled to a chemical reaction that uses a tetrazolium salt to form a formazan that is red and can be detected by its absorbance at 490 nm. […]
(Cellular ATP, detected with luciferase, serves as a proxy for viable cell number.)

In the next experiment the test system is RL. Kind of experiment: Cell cycle profile by FACS (propidium iodide DNA content). In kind it is cell-based, human. Particulars: 24 and 48 hr. Here is the method:
Lymphoma cell line cells were treated with the KSP inhibitors of the invention and analyzed by FACs analysis. Approximately 2×10^5 cells were harvested, cell pellets were washed with cold PBS twice and re-suspended in 500 μL cold PBS. Cells were fixed by adding 8 mL cold 80% ethanol while vortexing slowly. After 15 minutes of incubation fixed cells were washed twice with PBS and cell pellets were re-suspended in 1 mL of PI/RNASE staining buffer (BD Pharmingen™ catalog #550825) and incubated for 15 minutes at 37° C. protected from light. Propidium iodide (PI) is a fluorescent vital dye that stains both DNA and RNA. Therefore the RNA must be removed by digestion with ribonuclease (RNase). Stained cells were passed through a cell strainer into a FACS tube to reduce the number of cell aggregates (BD Falcon #352235) prior to FACS analysis. The DNA content of the fixed and stained cells was analyzed by the BD FACSCalibur flow cytometer using the CellQuest software.
Following mitotic arrest, cells have several options including coming out of arrest and dividing normally, undergoing apoptosis directly, or exiting mitosis without cytokinesis (a phenomenon called mitotic slippage). If cells undergo mitotic slippage, they can enter a pseudo-G1 and then either continue to cycle, senesce, or undergo apoptosis. […]

For `CC(C)(C)[C@H](c1nc(-c2cc(F)ccc2F)cn1Cc1ccccc1)N(CC[C@H](N)CF)C(=O)CO` [Compound IIa], the GI50 in experiment [1] (GI50 in nM, read-out: Log(GI50), arithmetic mean of panel (converted)) was 2.14 nM; in experiment [1] (read-out: GI50, geometric mean of panel), 2.14 nM. Further, in the experiment with RL, the “cell cycle profile (DNA content, FACS)” value is recorded as “remained arrested in mitosis”.

The GI50 is the concentration that inhibits growth by half.
